Laboratory results taken from patent US20040043503A1, “Automatic mass spectrometry analytical system for the quantitative detection of organic toxicant exposure in the human body” (priority 2002, published 2004).

Experiment: S-PMA concentration in urine samples from neonates and adults, by automatic mass spectrometry analytical system (on-line C18 cartridge, ESI-MS/MS)
Type: in vivo, human
Experimental: The collected urine samples were passed through 0.2 μm filtration membranes. An aliquot of 400 μL of filtered urine was firstly mixed with […] of 20% acetic acid and 100 μL of 1000 μg/L internal standard (IS), N-t-BOC-S-(p-methyl-benyl)-L-cysteine, with a known amount of S-PMA added when spiking experiments were performed, and diluted with 1400 μL of deionized water. From the total volume of 2000 μL, 200 μL of aliquot was injected into the analytical system (FIG. 1) for analysis. No other sample pretreatment procedures were performed or required other than the filtration described above. This can greatly simplify preparation procedures and save time.
Samples were loaded onto the C18 cartridge 2 (particle size 3 μm) by the pump 10 of autosampler 1 (as shown in FIG. 1) using 100% water at 0.6 mL/min, and were washed with 100% water for optimization time of 12 minutes (1.0, 2.0, 3.0, 4.0, 5.0, 6.0, 7.0, 8.0, 10.0, 12.0, 13.0, 14.0). This is to remove highly hydrophilic components of the urine samples to avoid interference with the subsequent detection results of spectrometry 4. The switching unit 3 (valve) was then activated to the Elute position and the sample was eluted with 1.0 mL/min 100% methanol provided by pump 10′ from cartridge 2 into the mass spectrometry 4 for analysis.
The mass spectrometry used in this invention is the API 365 Triple Quadrupole MS/MS.
Using the process described in Embodiment 1 above, this invention was used to establish the optimal experimental mode of quantitative detection of organic toxicant exposure in the human body using an automatic mass spectrometry analytical system. This Embodiment is to analyze the S-PMA concentration in urine samples collected from six neonates and six adults in the same hospital; the results are listed in Table 1. In the automatic mass spectrometry analytical system of this invention, each analysis took less than 18 minutes, and therefore 80 urine samples could be analyzed within 24 hours.

Structure (SMILES): CC(=O)NC(CSc1ccccc1)C(=O)O (centres unmarked) [S-PMA, S-phenyl mercapturic acid]
- S-PMA (Adult 1, non-smoker): 0.560 µg/L
- S-PMA (Adult 2, non-smoker): 1.268 µg/L
- S-PMA (Adult 3, non-smoker): 1.411 µg/L
- S-PMA (Adult 4, non-smoker): 4.196 µg/L
- S-PMA (Adult 5, non-smoker): 0.993 µg/L
- S-PMA (Adult 6, non-smoker): 1.255 µg/L
- S-PMA (Neonate 1): 0.249 µg/L
- S-PMA (Neonate 2): 0.345 µg/L
- S-PMA (Neonate 3): 0.322 µg/L
- S-PMA (Neonate 4): 0.365 µg/L
- S-PMA (Neonate 5): 0.356 µg/L
- S-PMA (Neonate 6): 0.348 µg/L
- S-PMA Arithmetic Mean (six adults, non-smokers): 1.614 µg/L
- S-PMA Arithmetic Mean (six neonates): 0.331 µg/L
